Structures can show the parent of a compound that is named as a salt.
Columns and labels:
conscious rabbits = test: Ocular response (intraocular pressure, pupil diameter) to a single topical application to one eye of conscious rabbits; format: in vivo; settings: for intraocular pressure / pupillary dilation: in 0.9 percent (w/v) physiological saline, summary of Tables IIIA, IIIB, IV and V; for Intraocular Pressure (mm Hg) Mean Δ: control eye minus exp. eye; for Intraocular Pressure (mm Hg) Mean Δ / Pupil Diameter (mm) Mean Δ / Intraocular Pressure (mm Hg) Exp. Eye / Pupil Diameter (mm) Exp. Eye: mean of maximal responses; for Pupil Diameter (mm) Mean Δ: difference between pairs of eyes; for Intraocular Pressure (mm Hg) Exp. Eye / Pupil Diameter (mm) Exp. Eye: single topical application; for Intraocular Pressure (mm Hg) Mean Δ Control-Exp. / Intraocular Pressure (mm Hg) Treated Eye: single application
Source text: The effect of different concentrations of racemic a-methyl norepinephrine hydrochloride in 0.9 percent (w/v) physiological saline applied singly to one eye of conscious rabbits is summarized in Table I, below.
The reported pressure and pupillary responses are the means of the maximal responses based on the time courses of the responses in pairs of eyes of individual rabbits. The number in parentheses denotes the number of experimental subjects.
The mean time course of the ocular response to a 0.5 percent (w/v) solution of racemic a-methyl norepinephrine in 0.9 percent (w/v) physiological saline applied unilaterally to conscious rabbits is shown in Table II, below.
The drug was applied unilaterally (treated eye). In the third column is reported the mean pressure difference in pairs of eyes of individual rabbits. The number in parentheses denotes the number of experimental subjects.
Tables IIIA, IIIB, IV and V, below, summarize the experimental results using racemic a-methyl epinephrine, diester of a-methyl epinephrine, and diester of a-methyl norepinephrine in 0.9 percent (w/v) physiological saline.
The drug was applied unilaterally (Exp. Eye) at T = 0 hr. In the third column is reported the mean pressure difference between pairs of eyes of individual rabbits.

[1] = system: normal healthy volunteers; test: Tonometry, tonography and pupil diameter after one drop to one eye of human subjects; format: in vivo; settings: for intraocular pressures of the treated eyes: one drop of 0.1 percent (w/v), seven subjects
Protocol: Tonometry and tonography studies were performed on normal healthy volunteers using an instrument denominated The Alcon pneumatonograph, available from Alcon Laboratories, Forth Worth, Texas. One drop of proparacaine (0.5 percent w/v) was applied to each eye prior to taking tonometric readings. The tonometer was calibrated by a manometric standard prior to initiation of these studies and checked on an air standardizer on each day of use. […] Pupil diameters were measured under normal laboratory light.
Each drug discussed hereinafter was dissolved in sterile physiological saline.
The reported values are the means of the maximal responses based on the time courses of the responses in pairs of eyes of individual subjects. The numbers in parentheses denote the number of experimental subjects. Po (mm Hg) is the intraocular pressure in seated subjects, C (µl min^-1 mm Hg^-1) is the outflow facility, and F (ul min^-1) is the rate of formation of the aqueous humor (subject supine).

Solubility in water = format: physicochemical
intraocular pressure = settings: Annals of Ophthalmology, 3, No. 3, 282 (March 1971); cited from earlier work
[2] = human, in vivo
Protocol: The blood pressure and the heart rate of all subjects given the dipivaloyl a-methyl epinephrine were measured prior to and after administration of the drop. No decrease in blood pressure or heart rate was observed.

[3] = 0.1 percent (w/v), normal subjects
[4] = 0.5 percent (w/v), normal subjects
[5] = tonographic studies on human subjects
[6] = 0.5 percent (w/v), six rabbits, time 0 hours
[7] = 0.5 percent (w/v), six rabbits, time 1 hour
[8] = 0.5 percent (w/v), six rabbits, time 3 hours
[9] = 0.5 percent (w/v), six rabbits, time 4 hours
[10] = 0.5 percent (w/v) solution, eight rabbits, time 0 hours
[11] = 0.5 percent (w/v) solution, eight rabbits, time 0.5 hours
[12] = 0.5 percent (w/v) solution, eight rabbits, time 1.0 hours
[13] = 0.5 percent (w/v) solution, eight rabbits, time 3.0 hours
[14] = 0.5 percent (w/v) solution, eight rabbits, time 5.0 hours
[15] = 0.5 percent (w/v) solution, eight rabbits, time 24.0 hours
[16] = 0.5 percent (w/v), two normal subjects

CNC(C)C(O)c1ccc(OC(=O)C(C)(C)C)c(OC(=O)C(C)(C)C)c1 (centres unmarked) [diester of a-methyl epinephrine]
intraocular pressure (conscious rabbits): reducing intraocular pressure | pupillary dilation (conscious rabbits): lack of pupillary dilation

CNCC(O)c1ccc(OC(=O)C(C)(C)C)c(OC(=O)C(C)(C)C)c1 (centres unmarked) [dipivaloyl epinephrine, reference compound]
intraocular pressure response [1, 3]: no effect on intraocular pressure | intraocular pressure response [1, 4]: significant decrease of intraocular pressure | mydriasis [1, 4]: marked mydriasis | intraocular pressure response at 1 hour ([1]; normal subjects, 1 hour after application): no significant pressure response

CC(N)C(O)c1ccc(OC(=O)C(C)(C)C)c(OC(=O)C(C)(C)C)c1 (centres unmarked) [diester of a-methyl norepinephrine]
intraocular pressure (conscious rabbits): reducing intraocular pressure | pupillary dilation (conscious rabbits): lack of pupillary dilation

CNC(C)C(O)c1ccc(OC(=O)C(C)(C)C)c(OC(=O)C(C)(C)C)c1 (centres unmarked) [4-(2-N-methylamino-1-hydroxypropyl)-1,2-dipivaloyloxybenzene hydrochloride]
pupillary response ([1]; 0.1 percent (w/v), normal subject): almost complete lack of pupillary response | intraocular pressures of the treated eyes ([1]; 24 hours): recovered | intraocular pressures of the treated eyes ([1]; at 1 and 5 hours): significantly decreased | outflow facility [1, 5]: increase | rate of formation of the aqueous humor [1, 5]: reduction

CC(N)C(O)c1ccc(OC(=O)C(C)(C)C)c(OC(=O)C(C)(C)C)c1 (centres unmarked) [Compound 5, 4-(2-amino-1-hyaroxypropyt)-1,2-dipivaioyioxybenzene hydrochloride]
solubility in water (Solubility in water): freely soluble in water

CC(N)C(O)c1ccc(O)c(O)c1 (racemic) [α-Methyl Norepinephrine, a-methyl norepinephrine]
Intraocular Pressure (mm Hg) Mean Δ (conscious rabbits; 0.1 percent wt. by volume): 0.9 ± 0.3 (4) mm Hg | Pupil Diameter (mm) Mean Δ (conscious rabbits; 0.1 percent wt. by volume): 0.9 ± 0.4 (4) mm | Intraocular Pressure (mm Hg) Exp. Eye (conscious rabbits; 0.1 percent wt. by volume): 20.6 ± 1.3 mm Hg | Pupil Diameter (mm) Exp. Eye (conscious rabbits; 0.1 percent wt. by volume): 4.6 ± 0.47 mm | Intraocular Pressure (mm Hg) Mean Δ (conscious rabbits; 0.3 percent wt. by volume): 4.5 ± 0.3 (4) mm Hg | Pupil Diameter (mm) Mean Δ (conscious rabbits; 0.3 percent wt. by volume): 1.2 ± 0.63 (4) mm | Intraocular Pressure (mm Hg) Exp. Eye (conscious rabbits; 0.3 percent wt. by volume): 16.5 ± 0.3 mm Hg | Pupil Diameter (mm) Exp. Eye (conscious rabbits; 0.3 percent wt. by volume): 4.4 ± 0.9 mm | Intraocular Pressure (mm Hg) Mean Δ Control-Exp. (conscious rabbits; [6]): 0.3 ± 0.3 (6) mm Hg | Intraocular Pressure (mm Hg) Treated Eye (conscious rabbits; [6]): 22.8 ± 1.4 (6) mm Hg | Intraocular Pressure (mm Hg) Mean Δ Control-Exp. (conscious rabbits; [7]): 2.8 ± 0.9 (6) mm Hg | Intraocular Pressure (mm Hg) Treated Eye (conscious rabbits; [7]): 20.2 ± 1.6 (6) mm Hg | Intraocular Pressure (mm Hg) Mean Δ Control-Exp. (conscious rabbits; [8]): 7.2 ± 0.9 (6) mm Hg | Intraocular Pressure (mm Hg) Treated Eye (conscious rabbits; [8]): 15.8 ± 1.3 (6) mm Hg | Intraocular Pressure (mm Hg) Mean Δ Control-Exp. (conscious rabbits; [9]): 6.3 ± 1.2 (6) mm Hg | Intraocular Pressure (mm Hg) Treated Eye (conscious rabbits; [9]): 16.7 ± 1.2 (6) mm Hg | Intraocular Pressure (mm Hg) Mean Δ (conscious rabbits; 0.5 percent wt. by volume): 6.0 ± 0.3 (4) mm Hg | Pupil Diameter (mm) Mean Δ (conscious rabbits; 0.5 percent wt. by volume): 0.9 ± 0.5 (4) mm | Intraocular Pressure (mm Hg) Exp. Eye (conscious rabbits; 0.5 percent wt. by volume): 15.5 ± 0.8 mm Hg | Pupil Diameter (mm) Exp. Eye (conscious rabbits; 0.5 percent wt. by volume): 3.9 ± 0.4 mm | Intraocular Pressure (mm Hg) Mean Δ (conscious rabbits; 0.8 percent wt. by volume): 6.8 ± 0.7 (6) mm Hg | Pupil Diameter (mm) Mean Δ (conscious rabbits; 0.8 percent wt. by volume): 1.1 ± 0.30 (6) mm | Intraocular Pressure (mm Hg) Exp. Eye (conscious rabbits; 0.8 percent wt. by volume): 15.7 ± 1.1 mm Hg | Pupil Diameter (mm) Exp. Eye (conscious rabbits; 0.8 percent wt. by volume): 4.8 ± 0.42 mm | Intraocular Pressure (mm Hg) Mean Δ (conscious rabbits; 1.0 percent wt. by volume): 7.4 ± 0.7 (10) mm Hg | Pupil Diameter (mm) Mean Δ (conscious rabbits; 1.0 percent wt. by volume): 3.4 ± 0.4 (10) mm | Intraocular Pressure (mm Hg) Exp. Eye (conscious rabbits; 1.0 percent wt. by volume): 14.3 ± 0.6 mm Hg | Pupil Diameter (mm) Exp. Eye (conscious rabbits; 1.0 percent wt. by volume): 7.2 ± 0.51 mm | lowering intraocular pressure (intraocular pressure): inactive

CC(C)(C)NC[C@H](O)COc1nsnc1N1CCOCC1 [timolol maleate, reference compound]
intraocular pressure response [1, 3]: no demonstrable pressure response | intraocular pressure response [1, 4]: did give a pressure response | pupillary response ([1]; normal subjects, concentration not given): lack of pupillary response | outflow facility [1, 5]: no effect

CNC(C)C(O)c1ccc(O)c(O)c1 (stereo not drawn) [α-methyl Epinephrine Hydrochloride, a-methyl epinephrine hydrochloride]
Intraocular Pressure (mm Hg) Mean Δ Control-Exp. (conscious rabbits; [10]): −0.1 ± 0.2 mm Hg | Intraocular Pressure (mm Hg) Treated Eye (conscious rabbits; [10]): 22.7 ± 0.6 mm Hg | Intraocular Pressure (mm Hg) Mean Δ Control-Exp. (conscious rabbits; [11]): 3.3 ± 0.8 mm Hg | Intraocular Pressure (mm Hg) Treated Eye (conscious rabbits; [11]): 19.4 ± 1.3 mm Hg | Intraocular Pressure (mm Hg) Mean Δ Control-Exp. (conscious rabbits; [12]): 5.9 ± 0.6 mm Hg | Intraocular Pressure (mm Hg) Treated Eye (conscious rabbits; [12]): 15.9 ± 1.2 mm Hg | Intraocular Pressure (mm Hg) Mean Δ Control-Exp. (conscious rabbits; [13]): 6.0 ± 0.8 mm Hg | Intraocular Pressure (mm Hg) Treated Eye (conscious rabbits; [13]): 14.1 ± 0.5 mm Hg | Intraocular Pressure (mm Hg) Mean Δ Control-Exp. (conscious rabbits; [14]): 5.5 ± 0.7 mm Hg | Intraocular Pressure (mm Hg) Treated Eye (conscious rabbits; [14]): 14.6 ± 0.6 mm Hg | Intraocular Pressure (mm Hg) Mean Δ Control-Exp. (conscious rabbits; [15]): 0.6 ± 0.1 mm Hg | Intraocular Pressure (mm Hg) Treated Eye (conscious rabbits; [15]): 22.9 ± 0.9 mm Hg | intraocular pressure (conscious rabbits): reducing intraocular pressure | pupillary dilation (conscious rabbits): lack of pupillary dilation | lowering intraocular pressure (intraocular pressure): inactive | intraocular pressure in the treated eyes [1, 16]: significant decrease | mydriatic response [1, 16]: not associated with a mydriatic response | time to development of the decrease of intraocular pressure [1, 16]: ≤ 1 h

CNC(C)C(O)c1ccc(OC(=O)C(C)(C)C)c(OC(=O)C(C)(C)C)c1 (centres unmarked) [dipivaloyl a-methyl epinephrine]
blood pressure [2]: No decrease | heart rate [2]: No decrease | intraocular pressure of the treated eye ([1]; one drop of 0.05 percent (w/v), three normal human subjects, at 1 and 3 hours): decreased
